Reference: PMC5627448, “Pharmacokinetics of carfilzomib in patients with advanced malignancies and varying degrees of hepatic impairment: an open-label, single-arm, phase 1 study” (Experimental Hematology & Oncology, 2017)

Assays:
[1] = Safety: treatment-emergent adverse events, discontinuations and deaths (NCI-CTCAE v4.03) in patients by hepatic function; assay type: in vivo, human
Protocol: (§1) Blood samples were collected to measure PK and plasma concentration of carfilzomib and its major metabolites (PR-389/M14, PR-413/M15, and PR-519/M16). Samples were collected on day 16 of cycle 1 and day 1 of cycle 2 (or on subsequent infusion days when the intended dose levels were administered) before infusion; at 15 min after start of infusion; within 2 min before end of infusion; and at 5, 15, and 30 min (±2 min for each); and at 1, 2, and 4 h (±5 min for each) after end of the infusion (Fig. 1). Safety was assessed throughout the study and included the monitoring of adverse events (AEs) using National Cancer Institute-Common Terminology Criteria for Adverse Events, version 4.03 (NCI-CTCAE v4.03), clinical laboratory evaluations, and vital signs; echocardiograms and physical examinations were also performed. The exact type and frequency of disease or tumor response assessments depended upon tumor type and was assessed by the investigator using the appropriate measure for the underlying malignancy, including Response Evaluation Criteria in Solid Tumours version 1.1.
(§2) Safety was assessed for patients who received any carfilzomib dose. AEs were mapped to a preferred term and system organ class using MedDRA and were graded using the NCI-CTCAE v4.03. ORR was summarized along with 95% exact binomial CIs by cohorts.

[2] = Plasma pharmacokinetics of carfilzomib and its major metabolites after 30-min IV infusion in patients with normal or impaired hepatic function; settings: human, in vivo
Protocol: This was a phase 1, multicenter, open-label, nonrandomized, comparative PK study of carfilzomib in patients with normal hepatic function or mild-to-moderate hepatic impairment. The study was conducted at 12 sites in the USA, United Kingdom, France, and the Netherlands. […] Exploratory objectives included evaluation of overall response rate (ORR) and duration of response (DOR).
Patients received carfilzomib as a 30-min IV infusion on days 1, 2, 8, 9, 15, and 16 of 28-day cycles (Fig. 1). All patients were to receive doses of 20 mg/m^2 on days 1 and 2 of cycle 1. […]
as §1, with “Samples were collected on day 16 of cycle 1 and day 1 of cycle 2 (or on subsequent infusion days when the intended dose levels were administered) before infusion; at 15 min after start of infusion; within 2 min before end of infusion; and at 5, 15, and 30 min (±2 min for each); and at 1, 2, and 4 h (±5 min for each) after end of the infusion (Fig. 1).” left out, “1.1. […]” for “1.1.”

[3] = system: relapsed or progressive advanced malignancies; test: Efficacy: best overall response as determined by investigator (RECIST 1.1 / IMWG-URC); assay type: in vivo, human; settings: for Best overall response: complete response / Best overall response: partial response / Best overall response: progressive disease / Best overall response: stable disease / Best overall response: not evaluable: response-evaluable population
Protocol: as §1
For multiple myeloma patients, efficacy was assessed on day 1 of each cycle during treatment. For solid tumor patients, efficacy was assessed on day 1 of every other cycle [i.e., on day 1 (±7 days) of cycles 3, 5, 7, 9, etc.] during treatment.
as §2

[4] = cited from earlier work
Description: Carfilzomib is an irreversible, proteasome inhibitor approved in the United States of America (USA) and Europe for the treatment of relapsed or refractory multiple myeloma in combination with lenalidomide + dexamethasone or with dexamethasone alone. […] In the normal hepatic function cohort, one outlier contributed to the extremely high variability. […] [6].

[5] = normal hepatic function, n = 11
[6] = normal hepatic function, n = 10
[7] = IV administration, patients with solid tumors

Which “Deaths considered related to treatment” value ([1]; both in mild hepatic impairment group: gastrointestinal hemorrhage and acute respiratory distress syndrome) does the source give for `CC(C)C[C@H](NC(=O)[C@H](CCc1ccccc1)NC(=O)CN1CCOCC1)C(=O)N[C@@H](Cc1ccccc1)C(=O)N[C@@H](CC(C)C)C(=O)[C@@]1(C)CO1` [carfilzomib] here?
The value was “Two”.

What about the “AE resulting in treatment discontinuation: increased blood bilirubin” value ([1]; human, in vivo) of the same compound?
Its value is 2 patients.

What about the “AE resulting in treatment discontinuation: pneumonitis” value ([1]; human, in vivo) of the same compound?
Its value is “one”.

And the “Grade ≥3 AEs considered related to treatment, patients” value ([1]; human, in vivo)?
Its value is 33%.

And the “Grade ≥3 AEs, patients” value ([1]; human, in vivo)?
Its value is 76%.

And the “Serious AE: acute kidney injury” value ([1]; human, in vivo)?
The value was “three”.

And the “Serious AE: anemia” value ([1]; human, in vivo)?
The value was “two”.

What about the “Serious AE: ascites” value ([1]; human, in vivo) of the same compound?
Its value is “three”.

What about the “Serious AE: hepatic encephalopathy” value ([1]; human, in vivo) of the same compound?
Its value is “two”.

And the “Serious AE: increased blood bilirubin” value ([1]; human, in vivo)?
Its value is “two”.

What about the “Serious AE: lower respiratory tract infection” value ([1]; human, in vivo) of the same compound?
Its value is “two”.

What about the “Serious AE: pneumonia” value ([1]; human, in vivo) of the same compound?
Its value is “two”.

And the “Serious AE: sepsis” value ([1]; human, in vivo)?
The value was “three”.

And the “Treatment-emergent AEs, patients” value ([1]; human, in vivo)?
The value was 98%.

And the “Treatment discontinuation due to death” value ([1]; mild impairment, n = 17)?
Its value is 2 n.

What about the “Treatment discontinuation due to disease progression” value ([1]; mild impairment, n = 17) of the same compound?
The value was 13 n.

And the “Treatment discontinuation due to death” value ([1]; moderate impairment, n = 14)?
The value was 1 n.

What about the “Treatment discontinuation due to disease progression” value ([1]; moderate impairment, n = 14) of the same compound?
The value was 7 n.

And the “Treatment discontinuation due to death” value [1, 5]?
Its value is 1 n.

And the “Treatment discontinuation due to disease progression” value [1, 5]?
Its value is 7 n.

What about the “Deaths within 30 days after the last dose” value ([1]; safety population) of the same compound?
The value was “Nine”.

And the “Treatment discontinuation due to death” value ([1]; severe impairment, n = 4)?
Its value is 2 n.

And the “Treatment discontinuation due to disease progression” value ([1]; severe impairment, n = 4)?
Its value is 2 n.

And the “Treatment discontinuation due to death” value ([1]; total, N = 46)?
Its value is 6 n.

And the “Treatment discontinuation due to disease progression” value ([1]; total, N = 46)?
Its value is 29 n.

What about the “Deaths among severe hepatic impairment patients” value ([1]; two progressive disease, two fatal AEs unrelated to treatment) of the same compound?
The value was “four”.

And the “Higher carfilzomib AUC vs. normal hepatic function patients” value [2]?
The value was 20–50%.

What about the “Mean T1/2” value [2] of the same compound?
The value was 30 to 42 min.

What about the “Best overall response: complete response” value ([3]; mild impairment, n = 15) of the same compound?
The value was 0 (0.0) n (%).

What about the “Best overall response: partial response” value ([3]; mild impairment, n = 15) of the same compound?
Its value is 0 (0.0) n (%).

And the “Best overall response: progressive disease” value ([3]; mild impairment, n = 15)?
Its value is 12 (80.0) n (%).

What about the “Best overall response: stable disease” value ([3]; mild impairment, n = 15) of the same compound?
The value was 1 (6.7) n (%).

What about the “Best overall response: complete response” value ([3]; moderate impairment, n = 9) of the same compound?
Its value is 0 (0.0) n (%).

What about the “Best overall response: not evaluable” value ([3]; moderate impairment, n = 9) of the same compound?
Its value is 3 (33.3) n (%).

What about the “Best overall response: partial response” value ([3]; moderate impairment, n = 9) of the same compound?
Its value is 0 (0.0) n (%).

What about the “Best overall response: progressive disease” value ([3]; moderate impairment, n = 9) of the same compound?
Its value is 4 (44.4) n (%).

What about the “Best overall response: stable disease” value ([3]; moderate impairment, n = 9) of the same compound?
The value was 2 (22.2) n (%).

And the “Best overall response: complete response” value [3, 6]?
Its value is 0 (0.0) n (%).

What about the “Best overall response: not evaluable” value [3, 6] of the same compound?
The value was 0 (0.0) n (%).

What about the “Best overall response: partial response” value [3, 6] of the same compound?
Its value is 1 (10.0) n (%).

What about the “Best overall response: progressive disease” value [3, 6] of the same compound?
Its value is 5 (50.0) n (%).

What about the “Best overall response: stable disease” value [3, 6] of the same compound?
Its value is 4 (40.0) n (%).

What about the “DOR of partial response” value ([3]; one multiple myeloma patient with normal hepatic function) of the same compound?
The value was at least 3 months.

What about the ORR ([3]; overall study population, n = 34, 95% CI 0.1–15.3%) of the same compound?
The ORR was 2.9%.

What about the “Best overall response: complete response” value ([3]; total, n = 34) of the same compound?
The value was 0 (0.0) n (%).

What about the “Best overall response: not evaluable” value ([3]; total, n = 34) of the same compound?
The value was 5 (14.7) n (%).

And the “Best overall response: partial response” value ([3]; total, n = 34)?
Its value is 1 (2.9) n (%).

And the “Best overall response: progressive disease” value ([3]; total, n = 34)?
The value was 21 (61.8) n (%).

And the “Best overall response: stable disease” value ([3]; total, n = 34)?
Its value is 7 (20.6) n (%).

And the “Cmax, historical data” value ([4]; 56 mg/m^2, geometric mean (geometric CV%))?
The value was 2079 (44%) ng/mL.

And the Estimated clearance [4, 7]?
The Estimated clearance was “high and exceeds hepatic blood flow”.

And the “Time within which most of the drug is eliminated from the plasma compartment” value [4, 7]?
The value was at most 30 min.

And the “Difference in PK parameters, mild hepatic impairment vs normal hepatic function” value ([4]; population PK analysis, mild N = 143, normal N = 474)?
The value was “no statistically significant differences”.
